The data set has as its target HBV. The conditions noted are these: ASO.

Where “and” joins values, the source holds several entries; their conditions need not be identical. Equal entries are not always repeated. HELM strings list units from the 5' end as sugar, base in round brackets, then linkage (d deoxyribose, r ribose, m 2'-O-methyl, p phosphodiester). Methylation of C is not given here. [moe] = 2'-O-(2-methoxyethyl) (MOE); [sp] = phosphorothioate linkage

Take “RNA1{[moe](G)[sp].[moe](G)[sp].d(C)[sp].d(A)[sp].d(T)[sp].d(A)[sp].d(G)[sp].d(C)[sp].d(A)[sp].d(G)[sp].d(C)[sp].[moe](A)[sp].[moe](G)[sp].[moe](G)[sp].[moe](A)[sp].[moe](T)[sp].[moe](G)}$$$$V2.0”: the target mRNA inhibition (HepG2, 0.07 µM) was 55% and 48%.
Regarding “RNA1{[moe](G)[sp].[moe](T)[sp].[moe](G)[sp].[moe](A)[sp].[moe](A)[sp].d(G)[sp].d(C)[sp].d(G)[sp].d(A)[sp].d(A)[sp].d(G)[sp].d(T)[sp].d(G)[sp].d(C)[sp].[moe](A)[sp].[moe](C)[sp].[moe](A)}$$$$V2.0”, the target mRNA inhibition by setting is: (HepG2, 0.0092593 µM) 0%; (HepG2, 0.0277778 µM) 4%; (HepG2, 0.07 µM) 77% and 75%; (HepG2, 0.0833333 µM) 32%; (HepG2, 0.25 µM) 62%.
“RNA1{[moe](G)[sp].[moe](T)[sp].[moe](G)[sp].[moe](A)[sp].[moe](A)[sp].d(G)[sp].d(C)[sp].d(G)[sp].d(A)[sp].d(A)[sp].d(G)[sp].d(T)[sp].d(G)[sp].d(C)[sp].[moe](A)[sp].[moe](C)}$$$$V2.0”: the target mRNA inhibition (HepG2, 0.07 µM) is 70% and 58%.
With “RNA1{[moe](G)[sp].[moe](T)[sp].[moe](G)[sp].[moe](A)[sp].d(A)[sp].d(G)[sp].d(C)[sp].d(G)[sp].d(A)[sp].d(A)[sp].d(G)[sp].d(T)[sp].d(G)[sp].[moe](C)[sp].[moe](A)[sp].[moe](C)[sp].[moe](A)}$$$$V2.0”, the target mRNA inhibition (HepG2, 0.07 µM) is 72% and 62%.
For “RNA1{[moe](G)[sp].[moe](T)[sp].[moe](G)[sp].[moe](C)[sp].[moe](A)[sp].[moe](G)[sp].d(A)[sp].d(G)[sp].d(G)[sp].d(T)[sp].d(G)[sp].d(A)[sp].d(A)[sp].d(G)[sp].d(C)[sp].[moe](G)[sp].[moe](A)}$$$$V2.0”, the target mRNA inhibition reads like this: (HepG2, 0.0092593 µM) 7%; (HepG2, 0.0277778 µM) 4%; (HepG2, 0.07 µM) 78% and 70%; (HepG2, 0.0833333 µM) 38%; (HepG2, 0.25 µM) 76%.
As for “RNA1{[moe](G)[sp].[moe](T)[sp].[moe](G)[sp].d(A)[sp].d(A)[sp].d(G)[sp].d(C)[sp].d(G)[sp].d(A)[sp].d(A)[sp].d(G)[sp].d(T)[sp].[moe](G)[sp].[moe](C)[sp].[moe](A)[sp].[moe](C)}$$$$V2.0”, the target mRNA inhibition (HepG2, 0.07 µM) is 70% and 68%.
On the same count and under the same terms, with “RNA1{[moe](G)[sp].[moe](T)[sp].[moe](T)[sp].[moe](C)[sp].d(C)[sp].d(G)[sp].d(C)[sp].d(A)[sp].d(G)[sp].d(T)[sp].d(A)[sp].d(T)[sp].d(G)[sp].[moe](G)[sp].[moe](A)[sp].[moe](T)[sp].[moe](C)}$$$$V2.0” the figure was 52% and 43%; with “RNA1{[moe](G)[sp].[moe](T)[sp].[moe](T)[sp].[moe](C)[sp].d(C)[sp].d(G)[sp].d(C)[sp].d(A)[sp].d(G)[sp].d(T)[sp].d(A)[sp].d(T)[sp].d(G)[sp].[moe](G)[sp].[moe](A)[sp].[moe](T)}$$$$V2.0”, 57% and 45%.
On the same count and under the same terms, with “RNA1{[moe](G)[sp].[moe](T)[sp].d(G)[sp].d(A)[sp].d(A)[sp].d(G)[sp].d(C)[sp].d(G)[sp].d(A)[sp].d(A)[sp].d(G)[sp].[moe](T)[sp].[moe](G)[sp].[moe](C)[sp].[moe](A)[sp].[moe](C)}$$$$V2.0” the figure was 68% and 60%; with “RNA1{[moe](G)[sp].[moe](T)[sp].d(G)[sp].d(C)[sp].d(A)[sp].d(G)[sp].d(A)[sp].d(G)[sp].d(G)[sp].d(T)[sp].d(G)[sp].[moe](A)[sp].[moe](A)[sp].[moe](G)[sp].[moe](C)[sp].[moe](G)[sp].[moe](A)}$$$$V2.0”, 70% and 66%; with “RNA1{[moe](G)[sp].[moe](T)[sp].d(T)[sp].d(C)[sp].d(C)[sp].d(G)[sp].d(C)[sp].d(A)[sp].d(G)[sp].d(T)[sp].d(A)[sp].[moe](T)[sp].[moe](G)[sp].[moe](G)[sp].[moe](A)[sp].[moe](T)}$$$$V2.0”, 56% and 55%.

The values above are taken from the OligoGym collection.
